Data reported in patent US20140315956A1, “SMALL MOLECULE INHIBITORS OF IL-6 AND USES THEREOF” (NATIONWIDE CHILDREN'S HOSPITAL, priority 2011, published 2014).
“Also recorded” adds a separate entry of the source.

Experiments:
[1] = system: Stat3 phosphorylation (p-Tyr705) induced by IL-6 in LNCaP prostate cancer cells; test: IL-6 induced Stat3 phosphorylation in LNCaP cells, Western blot; format: cell-based; conditions: IL-6 12.5 ng/ml 30 min, Western blot
Procedure: LNCaP prostate cancer cells were acquired from American Type Culture Collection. Cells were maintained in RPMI 1640 medium, 1× with 4.5 g/L L-glutamine, supplemented with 10% FBS, 100 U/ml penicillin and […] streptomycin (Invitrogen), in a humidified atmosphere of 5% CO2 at 37° C.
LNCaP prostate cancer cells were seeded in T75 flasks, grown to 50% confluence and serum-starved the following night. The cells were left untreated or were treated with MDL-A (100-400 μM), 1, 2 (5-40 μM) or DMSO in the absence of FBS. After 4 hours, the cells were stimulated with 12.5 ng/ml IL-6 (Cell Signaling Technology). The cells were then harvested at 30 minutes and washed with PBS and lysed in cold M-PER lysis buffer (Pierce) containing protease inhibitors (Sigma) and phosphatase inhibitors (Roche). Lysates were centrifuged at 14,000 rpm for 15 minutes at 4° C. and supernatants were collected and stored at −20° C. until further use.
Cell lysates were assayed for their protein concentrations using the Bradford protein assay reagent (Pierce), using BSA (Fisher Scientific) as the standard. Lysate samples were adjusted for the same protein concentration, approximately 5 μg of sample protein was loaded into each of the appropriate lanes. Protein samples were separated by SDS-PAGE and electrotransferred to PVDF membranes. The membranes were washed and blocked with 5% BSA in TBST (60 mM Tris-base, 120 mM NaCl, 0.1% Tween-20) for at least one hour and incubated with anti-phospho-STAT3 (p-Tyr705) antibody, anti-STAT3 antibody or anti-GAPDH antibody (all from Cell Signaling Technology) in 5% BSA in TBST overnight at 4° C. Blots were then washed three times in TBST and incubated with a horseradish peroxidase-conjugated goat anti-rabbit IgG secondary antibody (Cell Signaling Technology) in 5% BSA in TBST for 1 hour at room temperature. The bound antibody was detected using Enhanced Chemiluminescence detection reagents (Pierce) according to the manufacturer's instructions and chemiluminescence visualized using ECL Hyperfilm (Amersham).

GP130 [2] = target: T1, GP130 (Homo sapiens, UniProt P40189); test: Literature binding of madindoline A to GP130; conditions: compared with the docking free energy
T1 sequence (P40189 23-918): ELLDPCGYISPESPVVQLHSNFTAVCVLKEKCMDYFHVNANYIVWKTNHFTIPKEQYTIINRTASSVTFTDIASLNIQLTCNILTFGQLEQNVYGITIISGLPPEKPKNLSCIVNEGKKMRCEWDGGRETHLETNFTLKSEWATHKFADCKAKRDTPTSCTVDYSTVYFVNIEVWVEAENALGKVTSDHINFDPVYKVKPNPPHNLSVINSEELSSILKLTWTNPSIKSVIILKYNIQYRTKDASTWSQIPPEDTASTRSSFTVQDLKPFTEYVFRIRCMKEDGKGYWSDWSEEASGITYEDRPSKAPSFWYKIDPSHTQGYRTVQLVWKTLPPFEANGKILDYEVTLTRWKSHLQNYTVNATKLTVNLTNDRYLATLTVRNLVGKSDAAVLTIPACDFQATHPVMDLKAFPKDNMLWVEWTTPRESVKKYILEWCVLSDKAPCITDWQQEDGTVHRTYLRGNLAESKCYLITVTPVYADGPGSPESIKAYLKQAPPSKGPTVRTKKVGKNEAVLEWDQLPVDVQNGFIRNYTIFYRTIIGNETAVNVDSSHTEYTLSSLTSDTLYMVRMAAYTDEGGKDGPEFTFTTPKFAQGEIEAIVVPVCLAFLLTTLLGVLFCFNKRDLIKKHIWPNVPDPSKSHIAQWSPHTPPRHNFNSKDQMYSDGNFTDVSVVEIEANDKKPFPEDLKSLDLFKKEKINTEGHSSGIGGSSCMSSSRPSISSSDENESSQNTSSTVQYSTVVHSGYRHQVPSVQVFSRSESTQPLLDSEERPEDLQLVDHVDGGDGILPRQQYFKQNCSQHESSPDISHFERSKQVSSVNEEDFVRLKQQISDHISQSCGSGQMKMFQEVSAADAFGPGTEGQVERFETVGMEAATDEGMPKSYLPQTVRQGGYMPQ
Text: Several synthetic approaches to the preparation of the natural product have been reported (ref. 22 and references therein), but due to the length and complexity of the syntheses cannot be applied economically in a pharmaceutical process. A structure-based approach to the synthesis of madindoline A analogues has not yet been reported.

GP130 [3] = target: T1, GP130; conditions: reported by Saleh et al.; read-out: GP130 binding affinity KD; cited from earlier work
[4] = system: IL-6-independent MH60 cells; conditions: Omura and coworkers; cited from earlier work

CCCCC1=C(C)C(=O)[C@@](C)(CN2c3ccccc3[C@]3(O)CCO[C@H]23)C1=O [MDL-A, (+)-Madindoline A, reference compound]
inhibition of Stat3 phosphorylation induced by IL6 [1]: inhibit Stat3 phosphorylation; also recorded: dose dependent inhibition | experimental binding free energy (GP130 [2]): -5.0 kcal/mol | Kd (GP130 [3]): 288 µM | growth of IL-6-independent MH60 cells [4]: unaffected
